Assay results published in patent US20090181991A1, “COMPOUNDS AND COMPOSITIONS AS PROTEIN KINASE INHIBITORS” (IRM LLC, priority 2005, published 2009).

Columns and labels:
Experiment in all cases: Upstate KinaseProfiler radio-enzymatic filter binding assay
Format in all cases: biochemical
Settings in all cases: 10 μM compound, remaining activity
Bmx = biological target: T1, Bmx (Homo sapiens, UniProt P51813)
T1 construct: purchased Upstate
T1 sequence (P51813 1-675): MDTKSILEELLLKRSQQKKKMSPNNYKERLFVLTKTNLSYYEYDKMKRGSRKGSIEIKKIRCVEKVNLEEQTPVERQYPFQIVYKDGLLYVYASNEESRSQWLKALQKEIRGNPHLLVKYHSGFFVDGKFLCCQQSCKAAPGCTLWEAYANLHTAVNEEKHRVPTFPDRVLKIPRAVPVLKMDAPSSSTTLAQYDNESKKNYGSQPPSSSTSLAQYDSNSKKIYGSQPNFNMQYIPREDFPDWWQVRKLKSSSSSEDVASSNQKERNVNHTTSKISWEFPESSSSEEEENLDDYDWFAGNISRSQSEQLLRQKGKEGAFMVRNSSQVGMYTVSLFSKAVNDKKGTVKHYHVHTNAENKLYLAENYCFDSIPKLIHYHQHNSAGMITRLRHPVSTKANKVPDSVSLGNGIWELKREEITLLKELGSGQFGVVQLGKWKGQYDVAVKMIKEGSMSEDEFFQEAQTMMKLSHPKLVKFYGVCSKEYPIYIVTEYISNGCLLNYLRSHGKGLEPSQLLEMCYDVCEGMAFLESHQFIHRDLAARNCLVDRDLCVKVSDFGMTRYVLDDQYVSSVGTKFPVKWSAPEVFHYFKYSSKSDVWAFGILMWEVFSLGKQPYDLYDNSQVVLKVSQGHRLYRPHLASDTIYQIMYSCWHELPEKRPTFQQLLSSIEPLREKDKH
Description: (§1) Percentage inhibition is calculated for each reaction.

Lck = biological target: T2, Lck (Homo sapiens, UniProt P06239)
T2 construct: purchased Upstate
Description: as §1

Flt3 = biological target: T3, Flt3 (Homo sapiens, UniProt P36888)
T3 construct: purchased Upstate
T3 sequence (P36888 27-993): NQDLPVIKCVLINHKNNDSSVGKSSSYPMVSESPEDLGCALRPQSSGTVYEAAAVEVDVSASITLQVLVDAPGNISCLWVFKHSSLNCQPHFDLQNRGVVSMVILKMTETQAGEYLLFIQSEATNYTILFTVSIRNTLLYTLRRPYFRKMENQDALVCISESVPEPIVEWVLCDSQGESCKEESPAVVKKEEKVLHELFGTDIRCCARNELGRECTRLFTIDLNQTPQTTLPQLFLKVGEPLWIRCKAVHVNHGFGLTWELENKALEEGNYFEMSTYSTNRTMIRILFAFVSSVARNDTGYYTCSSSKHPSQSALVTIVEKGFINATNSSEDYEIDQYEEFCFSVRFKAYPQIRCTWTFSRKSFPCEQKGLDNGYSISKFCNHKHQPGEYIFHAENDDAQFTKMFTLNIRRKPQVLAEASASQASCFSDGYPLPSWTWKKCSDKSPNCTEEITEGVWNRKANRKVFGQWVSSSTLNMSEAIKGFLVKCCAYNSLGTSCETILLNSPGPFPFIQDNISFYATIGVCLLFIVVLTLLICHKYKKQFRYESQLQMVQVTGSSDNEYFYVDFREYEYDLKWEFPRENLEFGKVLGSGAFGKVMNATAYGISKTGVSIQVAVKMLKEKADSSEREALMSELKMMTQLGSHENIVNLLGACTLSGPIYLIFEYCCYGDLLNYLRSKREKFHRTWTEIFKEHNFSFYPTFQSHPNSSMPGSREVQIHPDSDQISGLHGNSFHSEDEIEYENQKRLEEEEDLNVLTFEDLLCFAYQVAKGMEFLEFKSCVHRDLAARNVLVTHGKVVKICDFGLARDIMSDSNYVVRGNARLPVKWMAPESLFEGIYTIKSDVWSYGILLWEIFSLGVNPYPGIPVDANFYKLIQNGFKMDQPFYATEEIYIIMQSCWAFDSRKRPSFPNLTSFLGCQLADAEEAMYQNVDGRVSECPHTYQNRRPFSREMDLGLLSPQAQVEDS
Description: as §1

SAPK2a = biological target: T4, SAPK2a (Homo sapiens, UniProt Q16539)
T4 construct: purchased Upstate
Description: as §1

Measured: kinase activity

T4 sequence (Q16539 whole entry): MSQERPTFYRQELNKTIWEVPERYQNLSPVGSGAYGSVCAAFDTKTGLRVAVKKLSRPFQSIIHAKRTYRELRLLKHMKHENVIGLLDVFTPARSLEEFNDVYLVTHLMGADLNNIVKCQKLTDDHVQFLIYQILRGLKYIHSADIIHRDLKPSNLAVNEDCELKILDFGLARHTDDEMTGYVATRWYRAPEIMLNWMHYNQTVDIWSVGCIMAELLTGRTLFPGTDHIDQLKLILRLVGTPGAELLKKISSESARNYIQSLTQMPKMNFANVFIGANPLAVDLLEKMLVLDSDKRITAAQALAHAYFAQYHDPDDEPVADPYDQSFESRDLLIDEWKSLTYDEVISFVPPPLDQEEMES
T2 sequence (P06239 whole entry): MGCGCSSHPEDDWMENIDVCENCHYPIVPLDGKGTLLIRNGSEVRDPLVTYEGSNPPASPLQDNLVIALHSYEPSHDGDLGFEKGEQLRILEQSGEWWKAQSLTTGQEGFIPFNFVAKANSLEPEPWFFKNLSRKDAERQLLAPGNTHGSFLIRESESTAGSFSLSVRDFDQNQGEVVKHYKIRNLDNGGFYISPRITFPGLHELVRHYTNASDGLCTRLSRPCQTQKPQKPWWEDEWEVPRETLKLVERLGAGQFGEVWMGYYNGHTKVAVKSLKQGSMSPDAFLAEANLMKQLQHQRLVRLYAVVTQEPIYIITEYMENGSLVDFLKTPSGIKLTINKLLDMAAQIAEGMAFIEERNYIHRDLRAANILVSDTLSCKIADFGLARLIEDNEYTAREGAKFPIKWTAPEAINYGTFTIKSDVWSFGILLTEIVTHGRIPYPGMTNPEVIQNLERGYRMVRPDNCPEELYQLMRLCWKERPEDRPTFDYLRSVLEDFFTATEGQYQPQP

O=C(Nc1cccc(Nc2cc(Nc3cccc(C(F)(F)F)c3)ncn2)c1)C1CC1 [Example 1, Cyclopropanecarboxylic acid {3-[6-(3-trifluoromethyl-phenylamino)-pyrimidin-4-ylamino]-phenyl}-amide]
less than 50%: all assays above
